Measurements published in patent publication US20210188930A1 (priority 2018, published 2021).
Entries after “also recorded” stand apart in the source; their conditions may differ. Like-named read-outs stand apart in the source and are kept apart here.

What was measured:
p53-R282W = target: T1, p53-R282W (Homo sapiens, UniProt P04637, R282W); assay type: cell-based; settings: p53-R282W on PUMA promoter, agents 24 hr (FIG. 37 and FIG. 41)
T1 construct: pcDNA3.1 expressing human full length p53 was gift from Prof; Xin Lu; expressed in transfected cells; host or cells: H1299 (p53-null)

p53-R172H = target: T2, p53-R172H (Mus musculus, UniProt P02340, R172H); assay type: cell-based
T2 construct: endogenous in cells; host or cells: mouse embryonic fibroblasts, Trp53-R172H/R172H

NCI60 cell lines = assay type: cell-based, human; settings: Struc. / WT / Null / Others, G150 retrieved by CellMiner
wtp53 = experiment: Real time qPCR of p53 targets, HCT116 cells; assay type: cell-based, human; settings: HCT116 expressing wtp53
Procedure: Total RNA was isolated from cells using Total RNA Purification Kit (B518651, Sangon Biotech). 1 μg total RNA was reverse-transcribed using the GoScript®™ Reverse Transciptase System (A5001, Promega) following manufacturer's protocol. PCR was performed in triplicate using SYBR green mix (Applied Biosystems), and a ViiA™ 7 Real-Time PCR System (Applied Biosystems) under the following conditions: 10 min at 95° C. followed by 40 cycles of 95° C. for 15 s and 60° C. for 1 min. Specificity of the PCR product was checked for each primer set and samples from the melting curve analysis. Expression levels of targeted genes were normalized relative to levels of β-actin adopting comparative Ct method.

T2 sequence (P02340 whole entry R172H): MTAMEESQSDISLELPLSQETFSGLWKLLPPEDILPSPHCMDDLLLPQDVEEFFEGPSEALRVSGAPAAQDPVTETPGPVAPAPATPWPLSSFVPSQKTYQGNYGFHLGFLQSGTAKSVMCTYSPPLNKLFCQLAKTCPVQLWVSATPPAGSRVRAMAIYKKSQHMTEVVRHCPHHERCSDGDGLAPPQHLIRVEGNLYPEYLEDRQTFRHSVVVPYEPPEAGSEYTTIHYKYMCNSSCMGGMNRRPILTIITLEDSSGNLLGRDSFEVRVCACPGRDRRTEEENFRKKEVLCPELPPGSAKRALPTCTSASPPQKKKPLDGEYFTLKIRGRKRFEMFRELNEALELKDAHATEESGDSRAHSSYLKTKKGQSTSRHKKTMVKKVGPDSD

Row | Molecule | enhancement of p53 transcriptional activity in luciferase assay (p53-R282W) | further results
1 | OCc1ccc(-c2ccc(-c3ccc(CO)s3)o2)s1 [RITA] | negligible | 
2 | C=Cc1nc2ccccc2c(=O)[nH]1 [STIMA-1] | negligible | 
3 | Cc1c2ccncc2c(C)c2c1[nH]c1ccccc12 [Ellipticine] | 3.3 times | 
4 | potassium arsenite [NSC3060] |  | PAb246 epitope (folded mouse p53-R172H), in words (p53-R172H): measurable increase of PAb1620 epitopes and PAb246 (for mouse p53-R172H) epitopes
5 | COc1ccc(/C=C/c2nc(NCCCN(C)C)c3ccccc3n2)cc1 [CP31398] | 1.5 times | 
6 | O=C1C2CCN(CC2)C1(CO)CO [PRIMA-1] | negligible | selectivity among NCI60 cell lines by p53 status (G150), in words (NCI60 cell lines): none of the reported compounds tested, including PRIMA-1 and NSC319726 survived the 4C screening; selectivity among NCI60 cell lines by p53 status (G150), in words (NCI60 cell lines; listed as NSC281668): No significant association
7 | COc1ccc(C2=N[C@@H](c3ccc(Cl)cc3)[C@@H](c3ccc(Cl)cc3)N2C(=O)N2CCNC(=O)C2)c(OC(C)C)c1 [Nutlin3] |  | mRNA levels of p53 targets, in words (wtp53): significantly enhanced PUMA, PIG3, CDKN1A and MDM2 mRNA levels
8 | C/C(=N\NC(=S)N1CCC1)c1ccccn1 [NSC319726] | 1.5 times | selectivity among NCI60 cell lines by p53 status (G150), in words (NCI60 cell lines): none of the reported compounds tested, including PRIMA-1 and NSC319726 survived the 4C screening; also recorded: No significant association
9 | CCn1c2ccccc2c2cc(CNC)ccc21 [PhiKan083] | negligible | 
10 | MIRA-1 | negligible | 
